From ChEMBL document CHEMBL1201862, “PubChem BioAssay data set” (2004)
Activity calls are given as the source filed them. Cut-off read from the data, not from the text of the source, for most assays here: actives have a measured EC50 and inactives only a lower limit.

Assays:
Streptokinase A = molecular target: T1, Streptokinase A (Streptococcus pyogenes serotype M1, UniProt P10520); test: S. pyogenes streptokinase expression inhibitors, potency, dose response, plasminogen activation absorbance, OD405 (AID 1914); assay type: functional, Streptococcus pyogenes M1 GAS;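 note: secreted streptokinase activity via plasminogen activation per viability signal from cell pellet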
T1 sequence (P10520 whole entry): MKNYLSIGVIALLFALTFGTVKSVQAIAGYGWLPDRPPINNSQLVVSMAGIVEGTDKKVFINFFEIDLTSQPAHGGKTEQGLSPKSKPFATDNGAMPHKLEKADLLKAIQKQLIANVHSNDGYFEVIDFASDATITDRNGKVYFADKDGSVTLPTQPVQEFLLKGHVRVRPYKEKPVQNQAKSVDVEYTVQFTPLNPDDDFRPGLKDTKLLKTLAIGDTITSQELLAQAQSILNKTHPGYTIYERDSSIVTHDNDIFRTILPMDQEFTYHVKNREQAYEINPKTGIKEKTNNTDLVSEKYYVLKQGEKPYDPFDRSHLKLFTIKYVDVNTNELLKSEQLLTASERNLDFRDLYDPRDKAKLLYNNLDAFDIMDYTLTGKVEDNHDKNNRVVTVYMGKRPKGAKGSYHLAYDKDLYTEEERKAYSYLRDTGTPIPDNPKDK

[1] = system: Streptococcus sp. 'group A'; test: growth inhibition of control SK(-) GAS strain, dose response, counter-screen for streptokinase expression inhibitor project, luminescence, kanamycin, BacTiterGlo, confirmation (AID 1900); assay type: functional, organism-based
Streptococcus = test: Group A Streptococcus viability loss, dose response, counter-screen for streptokinase expression inhibitor project, luminescence, BacTiterGlo (AID 1915); assay type: functional, organism-based;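 note: potency for reduction of bacterial viability or growth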
[2] = Luminescence Cell-Based Dose Retest to Confirm Inhibitors of Cancer Stem Cells. [Related pubchem assays (depositor defined):AID2717, AID2721]; assay type: functional, Homo sapiens
[3] = molecular target: T2, Heat shock factor protein 1 (Mus musculus, UniProt P38532); test: HSF1 potentiators in luciferase reporter cells, confirmation, cell-based, NIH3T3, luminescence, dose retest (AID 435004); assay type: functional;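 note: stress induced by proteasome inhibitor MG132 added 30 min after compound; luciferase reporter driven by HSF1 response element in NIH3T3 cells; actives raise luminescence as potentiators of the MG132 stress response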
T2 sequence (P38532 whole entry): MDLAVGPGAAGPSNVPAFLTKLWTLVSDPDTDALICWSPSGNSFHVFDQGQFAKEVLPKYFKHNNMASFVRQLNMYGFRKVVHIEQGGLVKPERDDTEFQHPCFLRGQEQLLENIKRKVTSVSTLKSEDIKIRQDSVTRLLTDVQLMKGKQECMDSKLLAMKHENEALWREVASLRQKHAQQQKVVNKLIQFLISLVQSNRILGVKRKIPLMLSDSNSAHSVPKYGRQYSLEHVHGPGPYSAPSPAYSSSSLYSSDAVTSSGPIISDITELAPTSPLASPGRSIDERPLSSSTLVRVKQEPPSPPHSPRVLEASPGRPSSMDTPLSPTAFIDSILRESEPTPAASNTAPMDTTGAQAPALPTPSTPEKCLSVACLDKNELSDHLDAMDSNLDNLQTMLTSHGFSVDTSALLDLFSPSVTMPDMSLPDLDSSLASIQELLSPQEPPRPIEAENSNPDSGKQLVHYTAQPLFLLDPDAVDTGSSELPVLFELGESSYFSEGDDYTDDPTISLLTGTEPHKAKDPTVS

[4] = Luminescence Cell-Based Dose Response HTS to Identify Inhibitors of 5'UTR Stem-Loop Driven Prion Protein mRNA Translation in H4 Neuroglioblastoma Cells. [Related pubchem assays: 1827 (Project Summary), 1813 (Primary HTS)]; assay type: functional
[5] = inhibitors of firefly luciferase expression or activity, dose response, H4 neuroglioma cells, luminescence (AID 1990); assay type: functional, cell-based
[6] = inhibitors of SNCA 5'UTR-driven reporter translation, confirmation, H4 neuroglioma cells, luminescence (AID 1988); assay type: functional, cell-based
[7] = molecular target: T3, RNA-binding protein pos-1 (Caenorhabditis elegans, UniProt G5EF15); test: inhibitors of POS-1/mex-3 RNA binding, dose response, biochemical, fluorescence polarization (AID 1964);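 note: purified POS-1 fused to maltose binding protein made in E. coli; potency of compounds blocking POS-1 binding to fluorescent RNA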
T3 sequence (G5EF15 whole entry): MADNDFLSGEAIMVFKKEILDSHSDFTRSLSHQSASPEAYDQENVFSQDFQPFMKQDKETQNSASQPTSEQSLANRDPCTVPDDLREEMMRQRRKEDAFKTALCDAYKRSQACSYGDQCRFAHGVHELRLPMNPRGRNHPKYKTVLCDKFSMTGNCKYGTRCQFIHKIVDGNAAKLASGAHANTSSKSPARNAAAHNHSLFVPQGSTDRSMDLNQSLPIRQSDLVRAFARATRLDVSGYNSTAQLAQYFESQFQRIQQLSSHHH

INS1 = test: beta cell apoptosis inhibitors, cytokine rescue, dose response, luminescence, retest (AID 449756); assay type: functional, cell-based; conditions: Rattus norvegicus;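 note: cell death triggered by IL-1 beta plus TNF-alpha plus IFN-gamma mixture; protective hits raise ATP signal compared with cytokine alone wells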
Cytochrome P450 1A2 = molecular target: T4, Cytochrome P450 1A2 (Homo sapiens, UniProt P05177);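 note: PubChem cytochrome P450 panel assay, CYP1A2 panel member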
T4 sequence (P05177 whole entry): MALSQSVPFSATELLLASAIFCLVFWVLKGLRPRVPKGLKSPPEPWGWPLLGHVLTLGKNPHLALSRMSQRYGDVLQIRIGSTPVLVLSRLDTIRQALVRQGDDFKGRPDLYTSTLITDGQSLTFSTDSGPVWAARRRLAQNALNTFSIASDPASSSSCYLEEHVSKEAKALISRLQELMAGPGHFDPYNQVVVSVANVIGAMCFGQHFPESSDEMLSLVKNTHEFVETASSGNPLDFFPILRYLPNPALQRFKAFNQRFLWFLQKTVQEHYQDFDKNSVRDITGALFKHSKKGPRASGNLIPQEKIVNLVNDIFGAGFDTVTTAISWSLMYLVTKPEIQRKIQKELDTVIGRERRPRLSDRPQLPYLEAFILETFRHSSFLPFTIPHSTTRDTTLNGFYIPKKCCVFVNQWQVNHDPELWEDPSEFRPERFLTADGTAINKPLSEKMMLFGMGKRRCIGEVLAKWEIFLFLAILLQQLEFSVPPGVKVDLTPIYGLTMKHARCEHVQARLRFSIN

Protein RecA = molecular target: T5, Protein RecA (Mycobacterium tuberculosis, UniProt P9WHJ3); test: Fluorescence Cell-Free Homogeneous Dose Retest to Identify Inhibitors of RecA-Intein Splicing Activity. [Related pubchem assays (depositor defined):AID2097, AID2223, AID489010, AID492950]; assay type: functional
T5 sequence (P9WHJ3 whole entry): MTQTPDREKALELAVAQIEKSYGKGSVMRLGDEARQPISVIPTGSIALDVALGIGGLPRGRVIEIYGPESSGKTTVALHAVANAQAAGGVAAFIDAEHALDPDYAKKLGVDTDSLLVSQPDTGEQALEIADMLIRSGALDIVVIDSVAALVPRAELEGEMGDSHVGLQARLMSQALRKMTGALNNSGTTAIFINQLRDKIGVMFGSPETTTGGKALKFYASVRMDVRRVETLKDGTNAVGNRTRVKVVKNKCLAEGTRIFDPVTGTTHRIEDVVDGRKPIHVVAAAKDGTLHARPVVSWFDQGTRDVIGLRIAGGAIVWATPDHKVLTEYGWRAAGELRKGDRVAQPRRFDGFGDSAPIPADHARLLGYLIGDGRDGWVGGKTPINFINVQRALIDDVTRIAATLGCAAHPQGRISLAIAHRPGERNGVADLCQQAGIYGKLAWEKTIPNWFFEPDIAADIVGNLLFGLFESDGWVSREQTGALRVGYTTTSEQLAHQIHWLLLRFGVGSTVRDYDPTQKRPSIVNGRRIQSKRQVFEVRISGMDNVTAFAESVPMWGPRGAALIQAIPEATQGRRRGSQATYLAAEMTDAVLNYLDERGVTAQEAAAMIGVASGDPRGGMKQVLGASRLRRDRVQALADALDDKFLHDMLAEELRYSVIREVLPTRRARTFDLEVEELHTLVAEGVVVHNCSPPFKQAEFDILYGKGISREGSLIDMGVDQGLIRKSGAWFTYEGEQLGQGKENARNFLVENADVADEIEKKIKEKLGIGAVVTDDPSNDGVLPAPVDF

[8] = molecular target: T6, Replicative DNA helicase DnaB (Mycobacterium tuberculosis, UniProt P9WMR3); test: DnaB intein splicing inhibitors, dose response, biochemical, cell-free fluorescence (AID 449749); assay type: functional
T6 sequence (P9WMR3 whole entry): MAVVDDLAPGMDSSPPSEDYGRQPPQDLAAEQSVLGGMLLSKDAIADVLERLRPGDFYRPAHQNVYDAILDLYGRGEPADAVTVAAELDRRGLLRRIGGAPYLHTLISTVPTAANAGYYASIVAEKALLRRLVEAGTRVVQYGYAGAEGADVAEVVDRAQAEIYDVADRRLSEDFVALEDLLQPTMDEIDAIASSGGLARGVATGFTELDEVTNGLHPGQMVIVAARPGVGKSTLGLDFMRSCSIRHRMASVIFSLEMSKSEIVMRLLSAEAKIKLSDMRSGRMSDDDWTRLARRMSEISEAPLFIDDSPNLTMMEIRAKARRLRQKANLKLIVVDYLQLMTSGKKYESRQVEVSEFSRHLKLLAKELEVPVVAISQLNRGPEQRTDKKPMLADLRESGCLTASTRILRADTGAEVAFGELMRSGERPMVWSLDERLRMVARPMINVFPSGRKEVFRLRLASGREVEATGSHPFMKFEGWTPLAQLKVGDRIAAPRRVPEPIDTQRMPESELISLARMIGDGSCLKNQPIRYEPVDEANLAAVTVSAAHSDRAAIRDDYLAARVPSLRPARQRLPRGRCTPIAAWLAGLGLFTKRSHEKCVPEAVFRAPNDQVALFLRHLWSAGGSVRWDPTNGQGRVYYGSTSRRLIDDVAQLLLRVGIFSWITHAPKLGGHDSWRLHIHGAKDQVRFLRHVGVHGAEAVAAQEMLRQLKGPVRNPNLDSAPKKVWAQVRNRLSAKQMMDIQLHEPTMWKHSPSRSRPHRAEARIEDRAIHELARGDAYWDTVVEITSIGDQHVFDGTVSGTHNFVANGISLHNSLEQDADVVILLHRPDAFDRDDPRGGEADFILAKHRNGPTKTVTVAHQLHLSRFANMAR

Row | Structure (SMILES) | EC50 [3] | further results
1 | O=c1cc(N2CCCCC2)c(-c2ccccc2)nn1Cc1ccc(Cl)cc1Cl |  | EC50 (Streptokinase A): > 150 µM (not active); EC50 [1]: 3.19 µM (active); EC50 (Streptococcus): 8.6 µM (active); AC50 ([2]; Homo sapiens): 1.65 µM (active)
2 | CN1CCN(Cc2c(O)ccc3cc(Br)ccc23)CC1 | 11.2 µM (active) | 
3 | Cc1ccc(CSc2nc3ccccc3c(=O)n2CCCC(=O)NCc2ccco2)cc1 | > 260 µM (inactive) | 
4 | CCc1cc2c(SCC#N)ncnc2s1 | > 260 µM (inactive) | 
5 | C=CCNC(=O)c1c(N)n(Cc2ccco2)c2nc3ccccc3nc12 | 43.4 µM (active) | 
6 | COc1ccc2[nH]c(C)c(CCNc3ccc(C(F)(F)F)cc3[N+](=O)[O-])c2c1 | > 260 µM (inactive) | 
7 | Cc1ccc(N2CC(C(=O)Nc3nnc(SCC(=O)Nc4cc(C)on4)s3)CC2=O)cc1 (centres undefined) |  | EC50 [4]: > 120 µM (not active); EC50 [5]: > 120 µM (not active); EC50 [6]: > 120 µM (not active)
8 | O=c1c2ccccc2[nH]c(=S)n1CCC1=CCCCC1 | > 260 µM (inactive) | 
9 | FC(F)(F)c1ccc(Sc2nnc(-c3cccs3)n2CC2CCCO2)nc1 (centres undefined) | > 260 µM (inactive) | 
10 | CCCc1nc2oc3cc(OC)ccc3c(=O)c2c(=O)n1CCc1ccccc1 | > 260 µM (inactive) | 
11 | CCCOC(=O)c1ccc(Oc2c[nH]nc2-c2ccc(O)cc2O)cc1 | > 260 µM (inactive) | EC50 (Streptokinase A): > 150 µM (not active); EC50 [1]: > 150 µM (not active); EC50 (Streptococcus): > 150 µM (not active)
12 | CCC(NC(=O)/C(=C\c1ccc2c(c1)OCO2)NC(C)=O)C(=O)O (centres undefined) | > 260 µM (inactive) | 
13 | COc1ccc(C2N(C(=O)CN3CCCC3)CCCN2S(=O)(=O)c2ccccc2)cc1 (centres undefined) | > 260 µM (inactive) | 
14 | COc1ccc(NC(=O)COC(=O)/C=C/C(=O)OCC(=O)Nc2ccc(OC)c(Cl)c2)cc1Cl | 6.53 µM (active) | 
15 | O=C1c2ccccc2C(=O)N1CCC(=O)N1CCCc2ccccc21 | > 260 µM (inactive) | 
16 | CCN(CC)c1ccc(N/C=C2/C(=O)NC(=O)N(Cc3ccccc3)C2=O)cc1 |  | EC50 [7]: > 300 µM (not active)
17 | Cc1nc(S(=O)(=O)c2ccc(Cl)cc2)c(NCc2ccccc2)o1 | > 260 µM (inactive) | 
18 | Cc1cn(-c2cc(C(=O)Nc3ccc(C)c(NC(=O)C(=O)c4c[nH]c5ccccc45)c3)cc(C(F)(F)F)c2)cn1 |  | EC50 [4]: 23 µM (active); EC50 [1]: 2.38 µM (active); EC50 (Streptococcus): 3.39 µM (active); AC50 ([2]; Homo sapiens): 2.18 µM (active)
19 | COC(=O)Cn1c2ccc(OC)cc2c2nc(C)sc21 | > 260 µM (inactive) | 
20 | O=C(Nc1ccc(Cl)cc1)Nc1csc([N+](=O)[O-])c1 | 31.4 µM (active) | AC50 (INS1): 7.03 µM (active)
21 | O=C(CN1C(=O)NC2(CCCC2)C1=O)NCCN1C(=O)S/C(=C\c2ccccc2F)C1=O | > 260 µM (inactive) | 
22 | Cc1ccc(S(=O)(=O)c2c(C)cc(C)nc2N2CCCCC2)cc1 | > 260 µM (inactive) | 
23 | CC(Oc1ccc(Cl)cc1)C(=O)/C=C/N(C)C (centres undefined) | > 260 µM (inactive) | AC50 (Cytochrome P450 1A2): 15.8 µM (inconclusive)
24 | CC(C)c1ccc(C2NC(=O)c3ccccc3O2)cc1 (centres undefined) | 21.2 µM (active) | 
25 | O=C(CN1c2ccccc2S(=O)(=O)c2ccccc21)NCc1ccc(F)cc1 | > 260 µM (inactive) | 
26 | CCOC(=O)N1CCN(C(=O)CS(=O)(=O)c2cn(Cc3ccc(F)cc3)c3ccccc23)CC1 | > 260 µM (inactive) | 
27 | CNc1c(NS(=O)(=O)c2ccc(F)c(Cl)c2)c(=O)oc2ccccc12 | > 260 µM (inactive) | 
28 | CCN(CC)CCOc1ccc(/C(=C(/Cl)c2ccccc2)c2ccccc2)cc1 [CLOMIPHENE] | 129 µM (active) | EC50 (Protein RecA): 12.4 µM (active); AC50 [8]: 4.34 µM (active); AC50 [2]: 1.35 µM (active)
